Experimental data taken from patent US9212168B2 (priority 2011, dated 2015).

What follows are molecules tested on HCV genotype 1a replicon (assay: HCV genotype 1a replicon assay (NS3 protease activity readout)). Settings: HCV genotype 1a replicon.
Format: cell-based, hepatitis C virus
Procedure, shortened: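 Genotype 1a subgenomic replicon cells (APC89, Huh7.5) were treated with compound dose-responses in G418-free medium, 0.5% DMSO final, for 48 or 72 hours at 37° C. Lysate NS3/4a protease activity measured with 15 μM FRET substrate, 20 min at 37° C (ex 340/em 509 nm); EC50 by 4-parameter fit.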

| Compound | Genotype 1a |
| --- | --- |
| COC(=O)N[C@H](C(=O)N1C[C@@H](C)C[C@H]1c1nc(-c2ccc(-c3cc(Cl)c(NC(=O)c4ccc(N5CCN(C(=O)C(C)(C)CO)C(CO)C5)nc4)cc3OC(F)(F)F)cc2)c[nH]1)C(C)C (some centres unmarked) [Example 14-3] | C (C represents pEC50 between and 9 and about 10, (EC50 between 1 nM and 0.1 nM)) |
| COC(=O)N[C@H](C(=O)N1C[C@@H](C)C[C@H]1c1nc(-c2ccc(-c3cc(Cl)c(NC(=O)c4ccc(N5CCN(C(=O)C(C)(C)CO)C(CO)C5)nc4)cc3OC(F)(F)F)cc2)c[nH]1)C(C)C (some centres unmarked) [Example 14-4] | B (B represents pEC50 between 8 and 9 (EC50 between 1 and 10 nM)) |
| COC(=O)N[C@H](C(=O)N1C[C@@H](N2CCOCC2)C[C@H]1c1nc(-c2ccc(-c3cc(Cl)c(NC(=O)c4ccc(N5CCN(C(=O)[C@H]6CC6(C)C)C[C@H]5C)nc4)cc3OC(F)(F)F)cc2)c[nH]1)C(C)C [Example 15-4] | D (D represents pEC50>10 (EC50<0.1 nM)) |
| COC(=O)NC(C(=O)N1CC(OC)CC1c1nc(-c2ccc(-c3cc(F)c(NC(=O)c4ccc(N5CCN(C(=O)C(C)(C)C)CC5C)nc4)cc3OC(F)(F)F)cc2)c[nH]1)C(C)(C)O (centres unmarked) [Example 16-6] | D (D represents pEC50>10 (EC50<0.1 nM)) |
| COC(=O)NC(C(=O)N1CC(OC)CC1c1nc(-c2ccc(-c3cc(Cl)c(NC(=O)c4ccc(N5CCN(C(=O)C(C)(C)CO)CC5C)nc4)cc3OC(F)(F)F)cc2)c[nH]1)C(C)OC (centres unmarked) [Example 16-8] | D (D represents pEC50>10 (EC50<0.1 nM)) |
| COC(=O)NC(C(=O)N1CC(OC)CC1c1nc(-c2ccc(-c3cc(Cl)c(NC(=O)c4ccc(N5CCN(C(=O)C(C)(C)CO)CC5C)nc4)cc3OC(F)(F)F)cc2)c[nH]1)C(C)(C)O (centres unmarked) [Example 16-9] | D (D represents pEC50>10 (EC50<0.1 nM)) |
| COC(=O)NC(C(=O)N1CC(OC)CC1c1nc(-c2ccc(-c3ccc(NC(=O)c4ccc(N5CCN(C(=O)C(C)(C)C)CC5C)nc4)cc3OC(F)(F)F)cc2)c[nH]1)C(C)O (centres unmarked) [Example 16-10] | C (C represents pEC50 between and 9 and about 10, (EC50 between 1 nM and 0.1 nM)) |
| COC(=O)NC(C(=O)N1CC(OC)CC1c1nc(-c2ccc(-c3ccc(NC(=O)c4ccc(N5CCN(C(=O)C(C)(C)C)CC5C)nc4)cc3OC(F)(F)F)cc2)c[nH]1)C(C)OC (centres unmarked) [Example 16-11] | D (D represents pEC50>10 (EC50<0.1 nM)) |
| COC(=O)NC(C(=O)N1CC(OC)CC1c1nc(-c2ccc(-c3cc(F)c(NC(=O)c4ccc(N5CCN(C(=O)C(C)(C)CO)CC5C)nc4)cc3OC(F)(F)F)cc2)c[nH]1)C(C)O (centres unmarked) [Example 16-12] | C (C represents pEC50 between and 9 and about 10, (EC50 between 1 nM and 0.1 nM)) |
| COC(=O)NC(C(=O)N1CC(OC)CC1c1nc(-c2ccc(-c3ccc(NC(=O)c4ccc(N5CCN(C(=O)C(C)(C)CO)CC5C)nc4)cc3OC(F)(F)F)cc2)c[nH]1)C(C)OC (centres unmarked) [Example 16-16] | D (D represents pEC50>10 (EC50<0.1 nM)) |
| COC(=O)NC(C(=O)N1CC(OC)CC1c1nc(-c2ccc(-c3ccc(NC(=O)c4ccc(N5CCN(C(=O)C(C)(C)CO)CC5C)nc4)cc3OC(F)(F)F)cc2)c[nH]1)C(C)(C)O (centres unmarked) [Example 16-17] | D (D represents pEC50>10 (EC50<0.1 nM)) |
| COC(=O)NC(C(=O)N1CC(OC)CC1c1nc(-c2ccc(-c3ccc(NC(=O)c4ccc(N5CCN(C(=O)C(C)(C)C)CC5C)nc4)cc3OC(F)(F)F)cc2)c[nH]1)C(C)(C)O (centres unmarked) [Example 16-18] | D (D represents pEC50>10 (EC50<0.1 nM)) |
| COC(=O)NC(C(=O)N1C(C)CCC1c1nc(-c2ccc(-c3ccc(C(=O)Nc4ccc(N5CCN(C(=O)C6CC6(C)C)CC5C)nc4)cc3OC(F)(F)F)cc2)c(Cl)[nH]1)C(C)C (centres unmarked) [Example 18-1] | C (C represents pEC50 between and 9 and about 10, (EC50 between 1 nM and 0.1 nM)) |
| COC(=O)N[C@H](C(=O)N1[C@@H](C)CC[C@H]1c1nc(-c2ccc(-c3ccc(C(=O)Nc4ccc(N5CCN(C(=O)C(C)(C)C)C[C@H]5C)nc4)cc3OC(F)(F)F)cc2)c(Cl)[nH]1)C(C)C [Example 18-2] | C (C represents pEC50 between and 9 and about 10, (EC50 between 1 nM and 0.1 nM)) |
| COC(=O)NC(C(=O)N1C(C)CCC1c1nc(-c2ccc(-c3ccc(C(=O)Nc4ccc(N5CCN(C(=O)C6CC6(C)C)CC5C)nc4)cc3OC(F)(F)F)cc2)c[nH]1)C(C)C (centres unmarked) [Example 18-3] | C (C represents pEC50 between and 9 and about 10, (EC50 between 1 nM and 0.1 nM)) |
| COC(=O)N[C@H](C(=O)N1[C@@H](C)CC[C@H]1c1nc(-c2ccc(-c3ccc(C(=O)Nc4ccc(N5CCN(C(=O)C(C)(C)C)C[C@H]5C)nc4)cc3OC(F)(F)F)cc2)c[nH]1)C(C)C [Example 18-4] | C (C represents pEC50 between and 9 and about 10, (EC50 between 1 nM and 0.1 nM)) |
| COC(=O)N[C@@H](C(=O)N1C[C@@H](C)C[C@H]1c1nc(-c2ccc(-c3cc(Cl)c(NC(=O)c4ccc(N5CCN(C(=O)C(C)(C)C)C[C@H]5C)nc4)cc3C(F)(F)F)cc2)c[nH]1)C1CCCCC1 [Example 19-3] | A (A represents a pEC50 value between 6 and 8 (EC50 between 1 μM and 10 nM)) |
| COC(=O)N[C@H](C(=O)N1C[C@@H](C)C[C@H]1c1nc(-c2ccc(-c3cc(Cl)c(NC(=O)c4ccc(N5CCN(C(=O)C(C)(C)CO)C[C@H]5C)nc4)cc3C(F)(F)F)cc2)c[nH]1)C1CCOCC1 [Example 19-4] | D (D represents pEC50>10 (EC50<0.1 nM)) |
| COC(=O)N[C@@H](C(=O)N1C[C@@H](C)C[C@H]1c1nc(-c2ccc(-c3cc(Cl)c(NC(=O)c4ccc(N5CCN(C(=O)C(C)(C)CO)C[C@H]5C)nc4)cc3C(F)(F)F)cc2)c[nH]1)C1CCCCC1 [Example 19-5] | A (A represents a pEC50 value between 6 and 8 (EC50 between 1 μM and 10 nM)) |
| COC(=O)N[C@H](C(=O)N1C[C@@H](C)C[C@H]1c1nc(-c2ccc(-c3cc(Cl)c(NC(=O)c4ccc(N5CCN(C(=O)C(C)(C)CO)C[C@H]5C)nc4)cc3C(F)(F)F)cc2)c[nH]1)C1CCCCC1 [Example 19-7] | B (B represents pEC50 between 8 and 9 (EC50 between 1 and 10 nM)) |
| COC(=O)N[C@H](C(=O)N1C[C@@H](C)C[C@H]1c1nc(-c2ccc(-c3cc(Cl)c(NC(=O)c4ccc(N5CCN(C(=O)C(C)(C)C)C[C@H]5C)nc4)cc3C(F)(F)F)cc2)c[nH]1)C1CCCCC1 [Example 19-8] | B (B represents pEC50 between 8 and 9 (EC50 between 1 and 10 nM)) |
| COC(=O)NC(C(=O)N1CC(C)CC1c1nc(-c2ccc(-c3cc(Cl)c(NC(=O)c4ccc(N5CCN(C(=O)C(C)(C)C)CC5C)nc4)cc3C(F)(F)F)cc2)c[nH]1)C1CC(C)OC(C)C1 (centres unmarked) [Example 19-10] | A (A represents a pEC50 value between 6 and 8 (EC50 between 1 μM and 10 nM)) |
| COC(=O)N[C@H](C(=O)N1C[C@@H](C)C[C@H]1c1nc(-c2ccc(-c3cc(Cl)c(NC(=O)c4ccc(N5CCN(C(=O)C(C)(C)C)C[C@H]5C)nc4)cc3C(F)(F)F)cc2)c[nH]1)C1CCCC1 [Example 19-11] | D (D represents pEC50>10 (EC50<0.1 nM)) |
| COC(=O)N[C@H](C(=O)N1C[C@@H](OC)C[C@H]1c1nc(-c2ccc(-c3cc(Cl)c(NC(=O)c4ccc(N5CCN(C(=O)C(C)(C)CO)C[C@H]5C)nc4)cc3C(F)(F)F)cc2)c[nH]1)C1CCOCC1 [Example 19-13] | D (D represents pEC50>10 (EC50<0.1 nM)) |
| COC(=O)N[C@@H](C(=O)N1C[C@@H](OC)C[C@H]1c1nc(-c2ccc(-c3cc(Cl)c(NC(=O)c4ccc(N5CCN(C(=O)C(C)(C)CO)C[C@H]5C)nc4)cc3C(F)(F)F)cc2)c[nH]1)C1CCCCC1 [Example 19-14] | A (A represents a pEC50 value between 6 and 8 (EC50 between 1 μM and 10 nM)) |
| COC(=O)N[C@H](C(=O)N1C[C@@H](OC)C[C@H]1c1nc(-c2ccc(-c3cc(Cl)c(NC(=O)c4ccc(N5CCN(C(=O)C(C)(C)CO)C[C@H]5C)nc4)cc3C(F)(F)F)cc2)c[nH]1)C1CCCCC1 [Example 19-15] | D (D represents pEC50>10 (EC50<0.1 nM)) |

Same assay, conditions: Hepatitis C virus, read-out: Genotype 1a, HCV genotype 1a replicon

| Compound | EC50 |
| --- | --- |
| COC(=O)N[C@H](C(=O)N1C[C@@H](C)C[C@H]1c1nc(-c2ccc(-c3cc(Cl)c(NC(=O)c4ccc(N5CCN(C(=O)C(C)(C)C)C(CO)C5)nc4)cc3OC(F)(F)F)cc2)c[nH]1)C(C)C (some centres unmarked) [Example 14-1] | 0.1 to 1 nM |
| COCCO[C@H]1C[C@@H](c2nc(-c3ccc(-c4cc(Cl)c(NC(=O)c5ccc(N6CCN(C(=O)C(C)(C)C)C[C@H]6C)nc5)cc4OC(F)(F)F)cc3)c[nH]2)N(C(=O)[C@@H](NC(=O)OC)C(C)C)C1 [Example 15-1] | 0.1 to 1 nM |
| COC(=O)N[C@H](C(=O)N1C[C@@H](Oc2ccn(C)n2)C[C@H]1c1nc(-c2ccc(-c3cc(Cl)c(NC(=O)c4ccc(N5CCN(C(=O)C(C)(C)C)C[C@H]5C)nc4)cc3OC(F)(F)F)cc2)c[nH]1)C(C)C [Example 15-2] | 0.1 to 1 nM |
| COC(=O)N[C@H](C(=O)N1C[C@@H](N2CCOCC2)C[C@H]1c1nc(-c2ccc(-c3cc(Cl)c(NC(=O)c4ccc(N5CCN(C(=O)C(C)(C)C)C[C@H]5C)nc4)cc3OC(F)(F)F)cc2)c[nH]1)C(C)C [Example 15-5] | < 0.1 nM |
| COC(=O)N[C@H](C(=O)N1C[C@@H](N(C)C(C)C)C[C@H]1c1nc(-c2ccc(-c3cc(Cl)c(NC(=O)c4ccc(N5CCN(C(=O)C(C)(C)C)C[C@H]5C)nc4)cc3OC(F)(F)F)cc2)c[nH]1)C(C)C [Example 15-7] | < 0.1 nM |
| COC(=O)N[C@H](C(=O)N1C[C@@H](N(C)CCN)C[C@H]1c1nc(-c2ccc(-c3cc(Cl)c(NC(=O)c4ccc(N5CCN(C(=O)C(C)(C)C)C[C@H]5C)nc4)cc3OC(F)(F)F)cc2)c[nH]1)C(C)C [Example 15-8] | 0.1 to 1 nM |
| COC(=O)N[C@H](C(=O)N1C[C@@H](N2CCCC2)C[C@H]1c1nc(-c2ccc(-c3cc(Cl)c(NC(=O)c4ccc(N5CCN(C(=O)C(C)(C)C)C[C@H]5C)nc4)cc3OC(F)(F)F)cc2)c[nH]1)C(C)C [Example 15-9] | < 0.1 nM |
| COC(=O)N[C@H](C(=O)N1C[C@@H](C(N)=O)C[C@H]1c1nc(-c2ccc(-c3cc(Cl)c(NC(=O)c4ccc(N5CCN(C(=O)OC(C)(C)C)C[C@H]5C)nc4)cc3OC(F)(F)F)cc2)c[nH]1)C(C)C [Example 15-10] | 1 to 10 nM |
| COC[C@H]1C[C@@H](c2nc(-c3ccc(-c4cc(Cl)c(NC(=O)c5ccc(N6CCN(C(=O)C(C)(C)C)C[C@H]6C)nc5)cc4OC(F)(F)F)cc3)c[nH]2)N(C(=O)[C@@H](NC(=O)OC)C(C)C)C1 [Example 15-13] | < 0.1 nM |
